Experimental data from the supplement of paper PMC8617591.

Experiments:
[1] = system: Mycobacterium tuberculosis Erdman (autoluminescent); assay: Einf, fitted maximum growth inhibition of three-drug combination (fraction); higher = stronger maximal inhibition
Protocol: (§1)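 DiaMOND equipotent three-drug combination dose responses (10 doses, 1.5- or 2-fold spacing, centred on IC90) against autoluminescent M. tuberculosis Erdman in 8 in vitro models. Read-out is OD600, or luminescence for the intracellular and dormancy models, normalised to untreated wells. Hill-fit Einf, AUC25 and GRinf are potency metrics; FIC50 and FIC90 are total Loewe fractional inhibitory concentrations as log2 (negative = synergy).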

[2] = system: Mycobacterium tuberculosis Erdman (autoluminescent); assay: AUC25, normalised area under dose response up to IC25 (three-drug combination) (fraction (0-1)); higher = more potent at low dose
Protocol: as §1

[3] = system: Mycobacterium tuberculosis Erdman (autoluminescent); assay: GRinf, maximum normalised growth rate inhibition (three-drug combination) (unitless (-1 to 1)); higher = less effect (negative = killing)
Protocol: as §1

[4] = system: Mycobacterium tuberculosis Erdman (autoluminescent); assay: total FIC90 (Loewe) at 90% inhibition, three-drug combination (log2); higher = more antagonistic
Protocol: as §1

[5] = system: Mycobacterium tuberculosis Erdman (autoluminescent); assay: total FIC50 (Loewe) at 50% inhibition, three-drug combination (log2); higher = more antagonistic
Protocol: as §1

COc1c(N2C[C@@H]3CCCN[C@@H]3C2)c(F)cc2c(=O)c(C(=O)O)cn(C3CC3)c12 [moxifloxacin] + O=[N+]([O-])c1cn2c(n1)OC[C@@H](OCc1ccc(OC(F)(F)F)cc1)C2 [pretomanid] + CO[C@H]1/C=C/O[C@@]2(C)Oc3c(C)c(O)c4c(O)c(c(/C=N/N5CCN(C6CCCC6)CC5)c(O)c4c3C2=O)NC(=O)/C(C)=C\C=C\[C@H](C)[C@H](O)[C@@H](C)[C@@H](O)[C@@H](C)[C@H](OC(C)=O)[C@@H]1C [rifapentine]
Conditions	AUC25, [2]	Einf, [1]	GRinf, [3]	total FIC50, [5]	total FIC90, [4]
in vitro model: acidic pH 5.7, time point: constant (~7 days, model-specific)	0.0693	0.874	-0.139	0.708	–
in vitro model: acidic pH 5.7, time point: terminal (~4-5 doublings, model-specific)	0.0354	0.971	-0.106	0.952	0.554
in vitro model: intracellular J774, time point: constant = terminal	–	0.964	-0.179	–	0.252

Conditions	AUC25, [2]	Einf, [1]	GRinf, [3]	total FIC50, [5]	total FIC90, [4]
in vitro model: butyrate, time point: constant (~7 days, model-specific)	0.099	0.918	-0.00663	0.501	0.722
in vitro model: butyrate, time point: terminal (~4-5 doublings, model-specific)	0.0765	0.963	-0.00653	0.582	0.784
in vitro model: cholesterol 0.05 mM, time point: constant (~7 days, model-specific)	0.111	0.713	-0.172	0.593	–
in vitro model: cholesterol 0.05 mM, time point: terminal (~4-5 doublings, model-specific)	0.0851	0.89	-0.186	1.01	1.21
in vitro model: cholesterol-high 0.2 mM, time point: constant (~7 days, model-specific)	0.0549	0.877	-0.142	0.887	0.511
in vitro model: cholesterol-high 0.2 mM, time point: terminal (~4-5 doublings, model-specific)	0.04	0.988	-0.672	1.15	0.705
in vitro model: dormancy (butyrate + nitrate, low O2), time point: constant (~7 days, model-specific)	0.0589	0.89	0.213	0.874	0.639
in vitro model: dormancy (butyrate + nitrate, low O2), time point: terminal (~4-5 doublings, model-specific)	0.0483	0.98	-0.128	1.17	1.14
in vitro model: standard 7H9 glycerol, time point: constant = terminal	0.0568	0.928	-0.0296	0.55	0.207
in vitro model: valerate, time point: constant (~7 days, model-specific)	0.116	0.89	0.0703	0.213	–
in vitro model: valerate, time point: terminal (~4-5 doublings, model-specific)	0.0723	0.941	0.0683	0.631	0.879

COc1c(N2C[C@@H]3CCCN[C@@H]3C2)c(F)cc2c(=O)c(C(=O)O)cn(C3CC3)c12 [moxifloxacin] + O=[N+]([O-])c1cn2c(n1)OC[C@@H](OCc1ccc(OC(F)(F)F)cc1)C2 [pretomanid] + CO[C@H]1/C=C/O[C@@]2(C)Oc3c(C)c(O)c4c(O)c(c(/C=N/N5CCN(C)CC5)c(O)c4c3C2=O)NC(=O)/C(C)=C\C=C\[C@H](C)[C@H](O)[C@@H](C)[C@@H](O)[C@@H](C)[C@H](OC(C)=O)[C@@H]1C [rifampicin]
Conditions	AUC25, [2]	Einf, [1]	GRinf, [3]	total FIC50, [5]	total FIC90, [4]
in vitro model: acidic pH 5.7, time point: constant (~7 days, model-specific)	0.0717	0.875	-0.146	0.484	–
in vitro model: acidic pH 5.7, time point: terminal (~4-5 doublings, model-specific)	0.0448	0.974	-0.163	0.652	0.221
in vitro model: intracellular J774, time point: constant = terminal	–	0.979	-0.304	–	0.0806

Conditions	AUC25, [2]	Einf, [1]	GRinf, [3]	total FIC50, [5]	total FIC90, [4]
in vitro model: butyrate, time point: constant (~7 days, model-specific)	0.0923	0.912	0.0241	0.355	0.227
in vitro model: butyrate, time point: terminal (~4-5 doublings, model-specific)	0.085	0.962	0.00652	0.25	0.434
in vitro model: cholesterol 0.05 mM, time point: constant (~7 days, model-specific)	0.0931	0.606	-0.000182	0.67	–
in vitro model: cholesterol 0.05 mM, time point: terminal (~4-5 doublings, model-specific)	0.0743	0.858	-0.0705	1.14	-0.636
in vitro model: cholesterol-high 0.2 mM, time point: constant (~7 days, model-specific)	0.0701	0.849	-0.468	0.869	1.29
in vitro model: cholesterol-high 0.2 mM, time point: terminal (~4-5 doublings, model-specific)	0.0765	0.996	-0.801	0.954	0.992
in vitro model: dormancy (butyrate + nitrate, low O2), time point: constant (~7 days, model-specific)	0.0676	0.883	0.23	0.689	0.327
in vitro model: dormancy (butyrate + nitrate, low O2), time point: terminal (~4-5 doublings, model-specific)	0.0531	0.965	-0.0626	0.662	0.913
in vitro model: standard 7H9 glycerol, time point: constant = terminal	0.0625	0.883	0.162	0.125	–
in vitro model: valerate, time point: constant (~7 days, model-specific)	0.0778	0.847	0.0569	0.325	–
in vitro model: valerate, time point: terminal (~4-5 doublings, model-specific)	0.0459	0.924	0.0455	0.877	0.41

COc1c(N2C[C@@H]3CCCN[C@@H]3C2)c(F)cc2c(=O)c(C(=O)O)cn(C3CC3)c12 [moxifloxacin] + O=[N+]([O-])c1cn2c(n1)OC[C@@H](OCc1ccc(OC(F)(F)F)cc1)C2 [pretomanid] + NC(=O)c1cnccn1 [pyrazinamide]
Conditions	AUC25, [2]	Einf, [1]	GRinf, [3]	total FIC50, [5]	total FIC90, [4]
in vitro model: acidic pH 5.7, time point: constant (~7 days, model-specific)	0.0694	0.831	-0.227	-0.148	–
in vitro model: acidic pH 5.7, time point: terminal (~4-5 doublings, model-specific)	0.0654	0.956	-0.278	0.329	-0.227
in vitro model: intracellular J774, time point: constant = terminal	–	0.967	-0.384	–	0.419

Conditions	AUC25, [2]	Einf, [1]	GRinf, [3]	total FIC50, [5]	total FIC90, [4]
in vitro model: butyrate, time point: constant (~7 days, model-specific)	0.111	0.909	0.0413	0.152	1.77
in vitro model: butyrate, time point: terminal (~4-5 doublings, model-specific)	0.0867	0.967	-0.0495	0.235	0.86
in vitro model: cholesterol 0.05 mM, time point: constant (~7 days, model-specific)	0.128	0.753	-0.295	–	–
in vitro model: cholesterol 0.05 mM, time point: terminal (~4-5 doublings, model-specific)	0.102	0.926	-0.334	1.11	–
in vitro model: cholesterol-high 0.2 mM, time point: constant (~7 days, model-specific)	0.0858	0.914	-0.29	0.415	–
in vitro model: cholesterol-high 0.2 mM, time point: terminal (~4-5 doublings, model-specific)	0.0802	1	-0.594	0.654	0.481
in vitro model: dormancy (butyrate + nitrate, low O2), time point: constant (~7 days, model-specific)	0.0852	0.871	0.199	0.104	-0.0729
in vitro model: dormancy (butyrate + nitrate, low O2), time point: terminal (~4-5 doublings, model-specific)	0.0687	0.982	-0.232	0.195	0.876
in vitro model: standard 7H9 glycerol, time point: constant = terminal	0.071	0.972	-0.151	–	–
in vitro model: valerate, time point: constant (~7 days, model-specific)	0.0976	0.89	0.0242	-0.452	–
in vitro model: valerate, time point: terminal (~4-5 doublings, model-specific)	0.0676	0.945	0.00495	0.11	-0.163
